In patent US20100286058A1, “Assessing Chemotherapy Resistance of Colorectal Tumors by Determining Sparc Hypermethylation” (priority 2007, published 2010):
Where “and” joins values, the source holds several entries; their conditions need not be identical. Equal entries are not always repeated. Entries after “also recorded” stand apart in the source; their conditions may differ.

How the values were obtained:
HT29 cells = assay: Cell proliferation (cell counts); type: cell-based, Human; conditions: incubated with 5-Aza, most noticeable after 2-days
Experimental: (§1) Human colorectal cancer (CRC) cell lines, MIP 101, RKO, HCT116 and HT29 (ATCC), and a normal colon cell line CCD 112CON (ATCC), were maintained in DMEM supplemented with 10% fetal bovine serum; 1% Kanamycin, Streptomycin, Penicillin; and incubated at 37° C. and 5% CO2. To determine the effect of reversing the methylation status of SPARC, a demethylating agent (5-Aza-2′deoxycytidine, “5-Aza”) was added to the culture media at a final concentration of 4 μm for a period of 7 days with medium changes on day 4, before assessing its effect on cell viability (WST-1), apoptosis (Caspase 3/7 and TUNEL) and cell proliferation.
(§2) To determine the rate of cell proliferation, cells exposed to 5-Aza for 7 days (and untreated controls) were seeded at 20,000 cells/well into a 48-well plate. Cells were counted from duplicate wells at 24, 48 and 72 h. The effect of 5-FU exposure for 24 hour-period on cell proliferation in the presence or absence of 5-Aza was also determined. We performed two independent experiments.

RKO cells = assay: Cell proliferation (cell counts); type: cell-based, Human
Experimental: as §1, §2

HCT 116 cells = assay: Cell proliferation (cell counts); type: cell-based, Human; conditions: incubated with 5-Aza, most noticeable after 2-days
Experimental: as §1, §2

MIP101 cells = assay: Cell proliferation (cell counts); type: cell-based, Human
Experimental: as §1, §2

[1] = target: T1, interaction between Dnmtl and the SPARC promoter (Homo sapiens, UniProt P26358); assay: Chromatin immunoprecipitation (ChIP) assay; type: cell-based; conditions: all CRC cell lines, following exposure to 5-Aza
T1 construct: endogenous in cells
T1 sequence (P26358 whole entry): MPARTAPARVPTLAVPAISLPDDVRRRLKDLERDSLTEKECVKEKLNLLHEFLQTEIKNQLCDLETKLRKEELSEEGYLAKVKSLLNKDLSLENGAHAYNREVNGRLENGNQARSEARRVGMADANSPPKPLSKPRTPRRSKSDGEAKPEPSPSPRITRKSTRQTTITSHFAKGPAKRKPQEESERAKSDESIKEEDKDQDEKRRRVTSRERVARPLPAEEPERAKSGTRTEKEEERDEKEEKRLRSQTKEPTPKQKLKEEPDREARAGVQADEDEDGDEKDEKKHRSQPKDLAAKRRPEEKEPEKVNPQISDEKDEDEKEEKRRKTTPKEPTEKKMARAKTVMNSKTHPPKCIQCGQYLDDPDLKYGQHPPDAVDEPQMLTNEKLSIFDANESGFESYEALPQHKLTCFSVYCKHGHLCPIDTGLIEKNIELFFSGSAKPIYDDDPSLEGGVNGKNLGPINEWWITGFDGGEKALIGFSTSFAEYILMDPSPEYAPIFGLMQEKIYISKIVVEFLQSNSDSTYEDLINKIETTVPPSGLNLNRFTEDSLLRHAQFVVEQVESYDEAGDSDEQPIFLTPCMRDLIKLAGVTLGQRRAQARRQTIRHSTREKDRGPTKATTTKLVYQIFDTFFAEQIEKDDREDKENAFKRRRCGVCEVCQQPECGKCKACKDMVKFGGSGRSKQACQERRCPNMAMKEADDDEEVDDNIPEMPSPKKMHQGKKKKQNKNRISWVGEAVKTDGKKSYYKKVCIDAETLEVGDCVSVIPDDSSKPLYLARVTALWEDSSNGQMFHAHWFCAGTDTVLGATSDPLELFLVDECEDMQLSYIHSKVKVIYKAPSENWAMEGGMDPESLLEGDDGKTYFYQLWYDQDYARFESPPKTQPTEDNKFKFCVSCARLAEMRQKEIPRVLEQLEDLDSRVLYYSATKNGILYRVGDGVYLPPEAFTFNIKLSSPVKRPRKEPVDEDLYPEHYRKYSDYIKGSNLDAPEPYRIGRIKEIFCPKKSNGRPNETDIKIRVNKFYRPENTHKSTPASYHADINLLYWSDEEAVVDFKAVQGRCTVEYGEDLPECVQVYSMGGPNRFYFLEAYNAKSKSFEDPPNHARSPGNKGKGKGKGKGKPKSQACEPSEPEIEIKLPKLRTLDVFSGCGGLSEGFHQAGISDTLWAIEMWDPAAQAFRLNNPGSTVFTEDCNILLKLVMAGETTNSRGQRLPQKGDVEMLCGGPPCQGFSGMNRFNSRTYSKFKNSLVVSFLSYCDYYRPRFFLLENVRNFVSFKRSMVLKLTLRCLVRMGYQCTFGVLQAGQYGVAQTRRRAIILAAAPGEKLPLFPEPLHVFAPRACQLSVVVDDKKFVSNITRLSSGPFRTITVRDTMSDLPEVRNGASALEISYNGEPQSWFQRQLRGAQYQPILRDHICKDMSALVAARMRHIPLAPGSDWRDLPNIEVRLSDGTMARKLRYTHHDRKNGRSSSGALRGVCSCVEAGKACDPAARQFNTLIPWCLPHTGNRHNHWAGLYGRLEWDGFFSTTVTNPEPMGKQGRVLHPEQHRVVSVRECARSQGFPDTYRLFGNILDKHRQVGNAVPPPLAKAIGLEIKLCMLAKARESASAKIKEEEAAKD
Experimental: To evaluate the effect of 5-Aza exposure on the interaction between Dnmtl (a DNA methyltranferase) with the promoter region of SPARC, a ChIP assay was performed using a ChIP kit (Epigentek) as per the manufacturer's instructions. Cells were fixed with formaldehyde for protein/DNA crosslinking and lysed. The DNA was sheared by sonication (10 pulses, […]) and added to a well coated with the antibody to the protein of interest (anti-Dnmtl, cat. #A-1001, Epigentek). Washes were performed to remove unbound material, while Dnmtl-bound DNA was released by protein digestion with proteinase K. The DNA was purified through a column and PCR was performed using primers designed to target the SPARC promoter region.

SPARC promoter = assay: Methylation specific PCR of CRC cell lines; type: cell-based, Human; conditions: 4 μM 5-Aza, 7 days in vitro; all four CRC cell lines (MIP101, RKO, HCT116, HT29)
Experimental: as §1
This technique is based on bisulfite treatment of the DNA, which modifies cytosines to uracil except when they are methylated (5-methylcytosine), followed by PCR. After bisulfite modification the DNA was amplified using methylation specific primers. Two primer sets, previously described, were used to target the CpG island located in the putative promoter region of the SPARC gene, and are referred as MSP1 and MSP2. Primers targeting INK4A(p16) were used as control. […] For RT-PCR, mRNA isolated from CRC cell lines were extracted using Trizol (Invitrogen). […]

SPARC [2] = assay: Western blot of SPARC protein; type: cell-based, Human; conditions: MIP101 cells (printed MW101) exposed to 5-Aza
SPARC [3] = assay: RT-PCR of SPARC mRNA; type: cell-based, Human; conditions: MIP101 cells exposed to 5-Aza
From the text: This technique is based on bisulfite treatment of the DNA, which modifies cytosines to uracil except when they are methylated (5-methylcytosine), followed by PCR. After bisulfite modification the DNA was amplified using methylation specific primers. Two primer sets, previously described, were used to target the CpG island located in the putative promoter region of the SPARC gene, and are referred as MSP1 and MSP2. Primers targeting INK4A(p16) were used as control. […] For RT-PCR, mRNA isolated from CRC cell lines were extracted using Trizol (Invitrogen). Primers to amplify SPARC, sense 5′-GGGAGGGCCTTGGCAG-3′ antisense 5′-GCACATGGGGGTGTTG-3′ and actin, sense 5′-GCCACGGCTGCTTCCAG-3′antisense 5′-GGCGTACAGGTCTTTGC-3′ were annealed at 49° C. in 45 cycles after reverse transcription for 1 hour at 50° C. Amplicons were separated in 2.5% agarose gel electrophoresis.

INK4A(p16) promoter = assay: Methylation specific PCR of CRC cell lines (control promoter); type: cell-based, Human; conditions: 4 μM 5-Aza, 7 days in vitro; all four CRC cell lines
MIP 101 cells = assay: Cell viability (WST-1); type: cell-based; conditions: 24 h, read-out: viable cells
Experimental: as §1
Cell viability was evaluated using WST-1 (Roche) following the manufacturer's instructions. Cells exposed to 5-Aza for a period of 7 days (and untreated controls) were seeded at 10,000 cells per well in triplicate into a 96-well plate. Twelve hours later, 5-Fluorouracil (5-FU) was added to a final concentration of 0, 500 or 1,000 μM for an additional 24 h. WST reagent was added to each well and incubated at 37° C. after which plates were read at 60 min at 440 nm. Three independent experiments were analyzed. The significance of differences were determined using Student's t-test (P<0.05).

In the case of `Nc1ncn([C@H]2C[C@H](O)[C@@H](CO)O2)c(=O)n1` [5-Aza, 5-Aza-2′deoxycytidine], the cell proliferation (HT29 cells) is reported as “less dramatic yet significant decrease in cell proliferation”, the “increase in cell doubling time” value (RKO cells; 4 μM 5-Aza vs control) is reported as 2.4 fold and 2.43 fold and the doubling time (RKO cells; incubation with 4 μM 5-Aza (control 0.7 days)) is reported as 1.7 days. For the same compound, the cell proliferation (HCT 116 cells) was “less dramatic yet significant decrease in cell proliferation”, the “increase in cell doubling time” value (MIP101 cells; 4 μM 5-Aza vs control) was 3 fold and the doubling time (MIP101 cells; incubation with 4 μM 5-Aza (control 0.8 days)) was 2.4 days. For the same compound, the “interaction between the SPARC promoter and Dnmtl (ChIP)” value [1] was “no longer observed”, the “methylation status in the MSP1 and MSP2 regions of the SPARC promoter” value (SPARC promoter) was “change in the methylation status” and the “SPARC protein expression (Western blot)” value (SPARC [2]) was “reactivation of SPARC RNA and protein expression”. The “SPARC RNA expression (RT-PCR)” value (SPARC [3]) was “higher SPARC expression; also recorded: reactivation of SPARC RNA and protein expression” and the “methylation status of the INK4A(p16) promoter” value (INK4A(p16) promoter) was “change in the methylation status”.
Compound `O=c1[nH]cc(F)c(=O)[nH]1` [5-FU, 5-Fluorouracil] has a viability at 500 µM (MIP 101 cells; Homo sapiens, 500 μM 5-FU only) of 87.7% and a viability at 1000 µM (MIP 101 cells; Homo sapiens, 1,000 μM 5-FU only) of 82.7%.
